{"source": "patent US11559528B2", "about": "“BACE1 inhibition for the treatment of cancer” (The Cleveland Clinic Foundation, priority 2019, dated 2023)", "key": {"[1]": {"test_system": "GBM xenografts derived from T4121 GSCs", "assay": "Intracranial GBM xenografts from T4121 glioma stem cells", "assay_type": "in vivo, mouse", "excerpt": "FIG. 4, panels A-F. BACE1 Inhibition by MK-8931 Converts M2 TAMs into M1 Macrophages to Phagocytize Glioma Cells in GBM Xenografts. (A and B) Density analysis of M2 TAMs by immunofluorescent staining of the M2 TAM marker (CD163 or FIZZ1) and the total TAM marker IBA1 and in GBM xenografts treated with MK-8931 or vehicle control. GBM xenografts were established by implantation of glioma stem cells (T4121) through intracranial injection. […] Representative immunofluorescent images (A) showing M2 TAMs (CD163^+ or FIZZ1^+, in red) and total TAMs (IBA1^+, in green) in the MK-8931-treated or control GBM xenografts. […] (C and D) Density analysis of M1 TAMs by immunofluorescent staining of the M TAM marker (HLA-DR or CD11c) and the total TAM marker IBA1 and in GBM xenografts treated with MK-8931 or vehicle control. […] Representative immunofluorescent images (C) showing M1 TAMs (HLA-DR^+ or CD11c^+, in red) and total TAMs (IBA1^+, in green) in the MK-8931-treated or control GBM xenografts. […] (E and F) In vivo phagocytosis of TAMs against human glioma cells in the MK-8931-treated or control GBM xenografts. […] Representative images (E) showing in vivo TAM phagocytosis as inclusion bodies of glioma cells (TRA-1-85^+, in red) with TAMs (IBA1, in green) in the MK-8931 treated GBM xenografts but not in the control tumors. […] Scale bar represents 30 μM. Ctl: Control; MK: MK-8931."}, "[2]": {"test_system": "GSCs (T387, T4121, and U87)", "assay": "Cell viability (cell titer) assay on glioma stem cells", "assay_type": "cell-based, human", "settings": "MK-8931 10 and 50 μg/mL, three days", "experimental": "FIG. 16, panels A-E. MK-8931 Treatment Had Little Effect on Glioma Stem Cells. (A and B) Tumorsphere formation assay to examine the effect of MK-8931 treatment on glioma stem cells (GSCs). Representative images (A) of tumorsphere derived from T4121 GSCs treated with MK-8931 (50 μg/mL) or the vehicle control. Quantifications (B) show the number and size of tumorsphere derived from T4121 GSCs treated with MK-8931 (50 μg/mL) or the control. Data are shown as mean±SEM. NS (not significant)≥0.05, Student's t-test. […] GAPDH was blotted as loading control. (D) Immunoblot analysis of the apoptotic markers cleaved-PARP and cleaved caspase-3 in GSCs (T387 and T4121) treated with MK-8931 (50 μg/mL), etoposide (Etop, 1 μM), or the vehicle control for different time as indicated. GAPDH was blotted as loading control. […] Ctl: Control; Etop: Etoposide. (E) Cell viability assay to examine the effect of MK-8931 treatment on proliferation of glioma stem cells. […] Data are shown as mean±SEM. NS (not significant)≥0.05, Student's t-test.\nCell viability assay was performed by using a Cell Titer-Glo Luminescent Cell Viability Assay Kit according to the manufacturer's instruction (Promega, G7571). For this assay, 1,000 cells were seeded on one well of a 96-well plate in 100 μL of stem cell medium. […] Plate was loaded on the VICTOR Multilabel Plate Reader (PerkinElmer) and the readout were recorded and analyzed. […]"}, "[3]": {"test_system": "H1002 and H146 lung cancer cells", "assay": "Cell titer viability assay on lung cancer cells", "assay_type": "cell-based, human", "settings": "indicated concentrations, 72 hours, n=3", "experimental": "(A) Effects of BACE1 inhibitors on lung cancer cell proliferation. H1002 and H146 lung cancer cells were treated with the indicated concentrations of the BACE1 inhibitor AZD3293, MK-8931, AZD3839, or PF-06751979 (PF) for 72 hours. Cell viability was assessed by cell titer assay (n=3). (B-D) A preclinical trial of MK-8931 for lung cancer treatment in xenograft models. H1002 lung cancer cells (5×106) were transplanted into mouse right flank through subcutaneous injection to establish subcutaneous lung cancer xenografts. […] Tumors dissected from mice of each group were photographed (C) and weighed (D). […] Data are shown as mean SEM. p **<0.01, Student's t-test."}, "AGS gastric cancer cells": {"test_system": "AGS gastric cancer cells", "assay": "Subcutaneous stomach cancer xenografts (AGS)", "assay_type": "in vivo, mouse", "settings": "50 mg/kg once daily oral gavage, from two weeks after inoculation; p<0.05", "excerpt": "FIG. 22, panels A-C, show treatment with the BACE1 Inhibitor MK-8931 reduced tumor growth of gastric cancer. (A-C) A preclinical trial of MK-8931 for stomach cancer treatment in xenograft models. AGS gastric cancer cells (3×106) were transplanted into mouse right flank through subcutaneous injection to establish subcutaneous stomach cancer xenografts. […] Tumors dissected from mice of each group were photographed (B) and weighed (C)."}, "[4]": {"settings": "cited from earlier work"}, "[5]": {"settings": "30 mg/kg once daily oral gavage two weeks"}, "[6]": {"settings": "30 mg/kg once daily oral gavage two weeks, p<0.001"}}, "note": "“Also recorded” adds a separate entry of the source."}
{"smiles": "CN1C(N)=N[C@](C)(c2cc(NC(=O)c3ccc(F)cn3)ccc2F)CS1(=O)=O", "note": "[MK-8931]", "values": [{"measurement": "IBA1+/pSTAT3+ double positive cells (TAMs)", "setting": "[1]; [5]", "value": "significantly reduced STAT3 activating phosphorylation in TAMs"}, {"measurement": "pSTAT3+ cells in xenografts", "setting": "[1]; [5]", "value": "significantly reduced STAT3 activating phosphorylation in GBM xenografts"}, {"measurement": "density of M1 TAMs (HLA-DR+/IBA1+ or CD11c+/IBA1+)", "setting": "[1]; [6]", "value": "significantly increased density of M1 TAMs"}, {"measurement": "density of M2 TAMs (CD163+/IBA1+ or FIZZ1+/IBA1+)", "setting": "[1]; [6]", "value": "significantly reduced density of M2 TAMs"}, {"measurement": "in vivo TAM phagocytosis (inclusion bodies of TRA-1-85+ glioma cells with IBA1+ TAMs)", "setting": "[1]; 30 mg/kg once daily oral gavage, p<0.01", "value": "promoted TAM phagocytosis"}, {"measurement": "proliferation / cell viability of glioma stem cells (cell titer)", "setting": "[2]", "value": "did not affect"}, {"measurement": "lung cancer cell proliferation (cell viability)", "setting": "[3]", "value": "suppressed lung cancer cell proliferation"}, {"measurement": "tumor growth (tumor weight)", "setting": "AGS gastric cancer cells", "value": "significantly reduced tumor growth of gastric cancer"}, {"measurement": "efficacy in phase 3 AD clinical trials", "setting": "[4]; AD patients", "value": "ineffectiveness in controlling AD progression or improving life quality of AD patients"}, {"measurement": "tolerability / safety in AD clinical trials", "setting": "[4]; patients, Phase I to Phase III", "value": "well-tolerated for patients; also recorded: very safe in the clinical trials for AD treatment; also recorded: well-tolerated in human and showed little toxic effect; also recorded: very safe for patients"}]}
